Test system: Neurospora crassa
Assay: Antifungal activity against Neurospora crassa os-1 mutant assessed as zone of protoplast production at 600 ng/disk after 36 to 48 hrs by microscopic examination
Format: functional

Compound: CCCCCCCCCC(O)CCCC(=O)N[C@H](C(=O)N[C@H](C)C(=O)N[C@@H](C)C(=O)N[C@@H](C)C(=O)N[C@H](Cc1ccc(O)cc1)C(=O)N[C@H](C(=O)O)C(C)C)[C@@H](C)O (stereo partly specified)
- Activity: 20 mm

Source: ChEMBL document CHEMBL1151725, “A cell wall-active lipopeptide from the fungus Pochonia bulbillosa” (2008)
